17 substances from US8101576B2, “Compounds and their effects on feeding behaviour” (priority 2006, dated 2012) can be followed below.

Square brackets hold non-standard residues; d marks the D form. Ends that are not written are not given here. * marks the point of attachment. Arachidoyl = CCCCCCCCCCCCCCCCCCCC(=O)*; Palmitoyl = CCCCCCCCCCCCCCCC(=O)*; Myristoyl = CCCCCCCCCCCCCC(=O)*

The experiment is described as follows: Inhibition of food intake, subcutaneous injection to fasted rats. Format: in vivo, Wistar rats. How it is done:
Animals: All animal procedures were approved by the British Home Office Animals (Scientific Procedures) Act 1986 (Project License number 70/5516).
Study protocol: C57BL/6 mice (20-35 g) were injected with the peptide under investigation following a 20-hour fast. Wistar rats were injected following a 24-hour fast. […] A pre-weighed quantity of chow was presented immediately after injection.

In the case of “D-His Ala Asp Gly Thr Phe Thr Ser Asp Tyr Ser Lys Tyr Leu Glu Gln Glu Ile Val Lys Tyr Phe Ile Gln Trp Leu Lys Asn Gly Gly Pro Ser Lys Asn Asn Ile Ala Lys ([dH]ADGTFTSDYSKYLEQEIVKYFIQWLKNGGPSKNNIAK) [PEPTIDE NO: 202]”, for the setting “5 nmoles/kg, over 48 hours”, the “Mean cumulative food intake in comparison to saline control” value (shortened to “Mean cumulative food intake”) is “potent and long acting suppression of food intake”; the “food intake in comparison to control group treated with native oxyntomodulin” value (shortened to “food intake … with native oxyntomodulin”) is “lower than in the control group treated with native oxyntomodulin”.

In the case of “D-His Ala Asp Gly Thr Phe Thr Ser Asp Tyr Ser Lys Tyr Leu Glu Gln Glu Ile Val Lys Tyr Phe Leu Gln Trp Leu Lys Asn Ala Gly Pro Ser Lys Asn Asn Ile Ala ([dH]ADGTFTSDYSKYLEQEIVKYFLQWLKNAGPSKNNIA) [PEPTIDE NO: 184]”, for the setting “3 nmoles/kg, over 24 hours”, the “Mean cumulative food intake” value was “potent and long acting suppression of food intake”; the “food intake … with native oxyntomodulin” value is “lower than in the control group treated with native oxyntomodulin”.

In the case of “D-His Ala Asp Gly Thr Phe Thr Ser Asp Tyr Ser Lys Tyr Leu Glu Gln Glu Leu Val Lys Tyr Phe Ile Gln Trp Leu Lys Asn Ala Gly Pro Ser Lys Asn Asn Ile Ala ([dH]ADGTFTSDYSKYLEQELVKYFIQWLKNAGPSKNNIA) [PEPTIDE NO: 178]”, under “10 nmoles/kg, over 24 hours”, the “Mean cumulative food intake” value is “potent and long acting suppression of food intake”; the “food intake … with native oxyntomodulin” value is “lower than in the control group treated with native oxyntomodulin”.

Turning to “D-His Ala Asp Gly Thr Phe Thr Ser Asp Tyr Ser Lys Tyr Leu Glu Gln Glu Leu Val Lys Tyr Phe Ile Gln Trp Leu Lys Asn Gly Gly Pro Ser Lys Asn Asn Ile Ala Lys ([dH]ADGTFTSDYSKYLEQELVKYFIQWLKNGGPSKNNIAK) [PEPTIDE NO: 205]”, for the setting “5 nmoles/kg, over 32 hours”, the “Mean cumulative food intake” value is “potent and long acting suppression of food intake”; the “food intake … with native oxyntomodulin” value is “lower than in the control group treated with native oxyntomodulin”.

Consider “D-His Ala Asp Gly Thr Phe Thr Ser Asp Tyr Ser Lys Tyr Leu Glu Gln Glu Leu Val Lys Tyr Phe Leu Gln Trp Leu Lys Asn Ala Gly Pro Ser Lys Asn Asn Ile Ala ([dH]ADGTFTSDYSKYLEQELVKYFLQWLKNAGPSKNNIA) [PEPTIDE NO: 172]”, for which, under “3 nmoles/kg, over 24 hours”, the “Mean cumulative food intake” value is “potent and long acting suppression of food intake”; the “food intake … with native oxyntomodulin” value is given as “lower than in the control group treated with native oxyntomodulin”.

For the substance “D-His Ala Asp Gly Thr Phe Thr Ser Asp Tyr Ser Lys Tyr Leu Glu Glu Glu Ile Val Lys Tyr Phe Ile Gln Trp Leu Lys Asn Gly Gly Pro Ser Lys Asn Asn Ile Ala ([dH]ADGTFTSDYSKYLEEEIVKYFIQWLKNGGPSKNNIA) [PEPTIDE NO: 167]”, under “5 nmoles/kg, 32 hours observed”, the “food intake suppression continues for” value is at least 32 h. For the same substance, where the note is “5 nmoles/kg, over 32 hours”, the “Mean cumulative food intake” value was “potent and long acting suppression of food intake”; the “food intake … with native oxyntomodulin” value is “lower than in the control group treated with native oxyntomodulin”.

“D-His Ala Asp Gly Thr Phe Thr Ser Asp Tyr Ser Lys Tyr Leu Glu Glu Glu Ile Val Lys Tyr Phe Ile Gln Trp Leu Lys Asn Gly Gly Pro Ser Lys Asn Asn Ile Ala Lys ([dH]ADGTFTSDYSKYLEEEIVKYFIQWLKNGGPSKNNIAK) [PEPTIDE NO: 201]”: for the setting “5 nmoles/kg, over 48 hours”, the “Mean cumulative food intake” value is “potent and long acting suppression of food intake”; the “food intake … with native oxyntomodulin” value was “lower than in the control group treated with native oxyntomodulin”.

On to “D-His Ala Asp Gly Thr Phe Thr Ser Asp Tyr Ser Lys Tyr Leu Glu Glu Glu Ile Val Lys Tyr Phe Ile Gln Trp Leu Met Asn Thr Lys Arg Asn Lys Asn Asn Ile Ala Lys ([dH]ADGTFTSDYSKYLEEEIVKYFIQWLMNTKRNKNNIAK) [PEPTIDE NO: 203]”, for which, where the note is “100 nmoles/kg, 24 hours observed”, the “food intake suppression continues for” value was at least 24 h. In addition, where the note is “100 nmoles/kg, over 24 hours”, the “Mean cumulative food intake” value was “potent and long acting suppression of food intake”; the “food intake … with native oxyntomodulin” value is “lower than in the control group treated with native oxyntomodulin”.

As to “D-His Ala Asp Gly Thr Phe Thr Ser Asp Tyr Ser Lys Tyr Leu Glu Glu Glu Ile Val Lys Tyr Phe Ile Glu Trp Leu Lys Asn Gly Gly Pro Ser Lys Asn Asn Ile Ala ([dH]ADGTFTSDYSKYLEEEIVKYFIEWLKNGGPSKNNIA) [PEPTIDE NO: 164]”, the “food intake suppression continues for” value (4 nmoles/kg, 48 hours observed) was at least 48 h. Where the note is “4 nmoles/kg, over 48 hours”, the “Mean cumulative food intake” value was “potent and long acting suppression of food intake”; the “food intake … with native oxyntomodulin” value is reported as “lower than in the control group treated with native oxyntomodulin”.

“D-His Ala Asp Gly Thr Phe Thr Ser Asp Tyr Ser Lys Tyr Leu Glu Glu Glu Leu Val Lys Tyr Phe Ile Gln Trp Leu Lys Asn Gly Gly Pro Ser Lys Asn Asn Ile Ala ([dH]ADGTFTSDYSKYLEEELVKYFIQWLKNGGPSKNNIA) [PEPTIDE NO: 155]”: the “food intake suppression continues for” value (4 nmoles/kg, 32 hours observed) is at least 32 h. Further, where the note is “4 nmoles/kg, over 32 hours”, the “Mean cumulative food intake” value is “potent and long acting suppression of food intake”; the “food intake … with native oxyntomodulin” value is “lower than in the control group treated with native oxyntomodulin”.

With “D-His Ala Asp Gly Thr Phe Thr Ser Asp Tyr Ser Lys Tyr Leu Glu Glu Glu Leu Val Lys Tyr Phe Ile Gln Trp Leu Lys Asn Gly Gly Pro Ser Lys Asn Asn Ile Ala Ala Ala Lys-arachidoyl ([dH]ADGTFTSDYSKYLEEELVKYFIQWLKNGGPSKNNIAAAK(Arachidoyl)) [PEPTIDE NO: 209]”, the “food intake … with native oxyntomodulin” value (80 mmoles/kg, over 48 hours) was “lower than in the control group treated with native oxyntomodulin”. Also, the “Mean cumulative food intake” value (over 48 hours) is “potent and long acting suppression of food intake”.

As to “D-His Ala Asp Gly Thr Phe Thr Ser Asp Tyr Ser Lys Tyr Leu Glu Glu Glu Leu Val Lys Tyr Phe Ile Gln Trp Leu Lys Asn Gly Gly Pro Ser Lys Asn Asn Ile Ala Ala Ala Lys-myristoyl ([dH]ADGTFTSDYSKYLEEELVKYFIQWLKNGGPSKNNIAAAK(Myristoyl)) [PEPTIDE NO: 206]”, the “food intake … with native oxyntomodulin” value (80 mmoles/kg, over 48 hours) is listed as “lower than in the control group treated with native oxyntomodulin”. The “Mean cumulative food intake” value (over 48 hours) was “potent and long acting suppression of food intake”.

As to “D-His Ala Asp Gly Thr Phe Thr Ser Asp Tyr Ser Lys Tyr Leu Glu Glu Glu Leu Val Lys Tyr Phe Ile Gln Trp Leu Lys Asn Gly Gly Pro Ser Lys Asn Asn Ile Ala Ala Ala Lys-palmitoyl ([dH]ADGTFTSDYSKYLEEELVKYFIQWLKNGGPSKNNIAAAK(Palmitoyl)) [PEPTIDE NO: 207]”, the “food intake … with native oxyntomodulin” value (80 mmoles/kg, over 48 hours) is “lower than in the control group treated with native oxyntomodulin”. Under “over 48 hours”, the “Mean cumulative food intake” value is “potent and long acting suppression of food intake”.

In the case of “D-His Ala Asp Gly Thr Phe Thr Ser Asp Tyr Ser Lys Tyr Leu Glu Glu Glu Leu Val Lys Tyr Phe Ile Gln Trp Leu Lys Asn Gly Gly Pro Ser Lys Asn Asn Ile Ala Lys ([dH]ADGTFTSDYSKYLEEELVKYFIQWLKNGGPSKNNIAK) [PEPTIDE NO: 204]”, under “5 nmoles/kg, over 32 hours”, the “Mean cumulative food intake” value was “potent and long acting suppression of food intake”; the “food intake … with native oxyntomodulin” value is reported as “lower than in the control group treated with native oxyntomodulin”.

On to “D-His Ala Asp Gly Thr Phe Thr Ser Asp Tyr Ser Lys Tyr Leu Glu Glu Glu Leu Val Lys Tyr Phe Ile Glu Trp Leu Met Asn Thr Lys Arg Asn Lys Asn Asn Ile Ala ([dH]ADGTFTSDYSKYLEEELVKYFIEWLMNTKRNKNNIA) [PEPTIDE NO: 153]”, for which, for the setting “200 mmoles/kg, over 24 hours”, the “Mean cumulative food intake” value was “potent and long acting suppression of food intake”; the “food intake … with native oxyntomodulin” value is given as “lower than in the control group treated with native oxyntomodulin”.

Consider “D-His Ala Asp Gly Thr Phe Thr Ser Asp Tyr Ser Lys Tyr Leu Glu Glu Glu Leu Val Lys Tyr Phe Leu Gln Trp Leu Lys Asn Ala Gly Pro Ser Lys Asn Asn Ile Ala ([dH]ADGTFTSDYSKYLEEELVKYFLQWLKNAGPSKNNIA) [PEPTIDE NO: 148]”, for which, for the setting “10 nmoles/kg, over 24 hours”, the “Mean cumulative food intake” value is “potent and long acting suppression of food intake”; the “food intake … with native oxyntomodulin” value is on record as “lower than in the control group treated with native oxyntomodulin”.

For the substance “D-His Ala Gln Gly Thr Phe Thr Ser Asp Tyr Ser Lys Tyr Leu Glu Gln Glu Ile Val Lys Tyr Phe Ile Gln Trp Leu Lys Asn Ala Gly Pro Ser Lys Asn Asn Ile Ala ([dH]AQGTFTSDYSKYLEQEIVKYFIQWLKNAGPSKNNIA) [PEPTIDE NO: 142]”, under “3 nmoles/kg, over 24 hours”, the “Mean cumulative food intake” value was “potent and long acting suppression of food intake”; the “food intake … with native oxyntomodulin” value is given as “lower than in the control group treated with native oxyntomodulin”.
